Data set [1] has as its system Haemonchus contortus. As to the kind of experiment: Anthelmintic activity against Haemonchus contortus in infected sheep assessed as reduction in faecal egg at 0.10 mg/kg, po. The format is functional, Feces. On the set-up: scale not given: the % may be the effect or the level left. To be noted: dose 0.1 mg/kg.
The nature of data set [2]: Partition coefficient, log P of the compound. Format: physicochemical. To be noted: octanol/water.
The test system of data set [3] is Haemonchus contortus. As to the kind of experiment: Anthelmintic activity against Haemonchus contortus in infected sheep assessed as reduction in faecal egg at 0.25 mg/kg, po. The format is functional, Feces. On the set-up: scale not given: the % may be the effect or the level left.
Data set [4] relates to Haemonchus contortus. As to the kind of experiment: Anthelmintic activity against Haemonchus contortus in infected sheep assessed as reduction in faecal egg at 0.05 mg/kg, po. On the set-up: scale not given: the % may be the effect or the level left. Format: functional, Feces.

The logP is a log measure of how a compound divides between an organic and an aqueous phase. Turning to `CC[C@@H](C)[C@H]1C(=O)O[C@H](Cc2ccc(N)cc2)C(=O)N(C)[C@@H]([C@H](C)CC)C(=O)O[C@H](C)C(=O)N(C)[C@@H](C)C(=O)O[C@H](C)C(=O)N1C`, the Activity in the data set on Haemonchus contortus [1] is on record as 50%. The logP in data set [2] is 2.08.
In the case of `CC[C@@H](C)[C@H]1C(=O)O[C@H](Cc2ccc([N+](=O)[O-])cc2)C(=O)N(C)[C@@H]([C@H](C)CC)C(=O)O[C@H](C)C(=O)N(C)[C@@H](C)C(=O)O[C@H](C)C(=O)N1C`, the Activity with Haemonchus contortus [1] was 50%.
Turning to `CC[C@@H](C)[C@H]1C(=O)O[C@H](Cc2ccccc2)C(=O)N(C)[C@@H]([C@H](C)CC)C(=O)O[C@H](C)C(=O)N(C)[C@@H](C)C(=O)O[C@H](C)C(=O)N1C`, the Activity result in the data set on Haemonchus contortus [3] was “<=50%”. This compound gave a log partition coefficient (logP) in data set [2] of 4.23.
As to `CCC(C)[C@H]1C(=O)O[C@H](C)C(=O)N(C)[C@@H](C)C(=O)O[C@H](C)C(=O)N(C)[C@@H](C(C)CC)C(=O)O[C@H](C)C(=O)N1C` (stereo partly drawn), in the data set with Haemonchus contortus [4], the Activity entry is recorded as “>=95%”. In data set [2], this compound displayed a lipophilicity (logP) of 3.26.
For `CC[C@@H](C)[C@H]1C(=O)O[C@H](Cc2cccc(N)c2)C(=O)N(C)[C@@H]([C@H](C)CC)C(=O)O[C@H](C)C(=O)N(C)[C@@H](C)C(=O)O[C@H](C)C(=O)N1C`, the Activity entry in the data set with Haemonchus contortus [4] is on record as “>=95%”. In data set [2], this compound returned a log partition coefficient (logP) of 2.35.
Taken in the same sequence, the figures for `CC[C@@H](C)[C@H]1C(=O)O[C@H](Cc2ccccc2N)C(=O)N(C)[C@@H]([C@H](C)CC)C(=O)O[C@H](C)C(=O)N(C)[C@@H](C)C(=O)O[C@H](C)C(=O)N1C` were “>=95%” and 3.18.
For `CC[C@@H](C)[C@H]1C(=O)O[C@H](Cc2ccc(N3CCOCC3)cc2)C(=O)N(C)[C@@H]([C@H](C)CC)C(=O)O[C@H](C)C(=O)N(C)[C@@H](C)C(=O)O[C@H](C)C(=O)N1C`, in the data set with Haemonchus contortus [1], the Activity result is “>=95%”. Further, the logP in data set [2] is 3.58.

The values are drawn from ChEMBL document CHEMBL1145322, “Synthesis and anthelmintic activity of substituted (R)-phenyllactic acid containing cyclohexadepsipeptides” (Bioorg Med Chem Lett, 2006).
